Assay results as given in patent publication US6306828A, “Enantiomerically-enhanced nutritional energy substrates” (Baxter International, Inc., priority 1995, dated 2001).

Legend:
[1] = tested on: macrophage cultures; settings: high lactate concentration; Jensen et al. 1986; cited from earlier work
[2] = tested on: cerebral metabolism / brain function during hypoglycemia; settings: cited from earlier work
[3] = tested on: skeletal muscle; settings: Hermanson et al. 1972; cited from earlier work
[4] = tested on: isolated rat hepatocytes; experiment: Bioavailability/metabolism in isolated rat hepatocytes (production of metabolic intermediates); type: cell-based, male Wistar rats; settings: 20 mM; for Glucose production / Ketone Bodies production / Pyruvate-Lactate production: 37° C.
Method: (§1) Assay of Bioavailability and Gross Toxicity of Trilactyl Glycerate in Isolate Rat Hepatocytes
(§2) In the following experiment, male Wistar rats (200-250 g) fasted for 24 hours were used. Hepatocytes were isolated according to the method of Berry and Friend (1969) as modified by Groen et al. (1982).
(§3) The isolated hepatocytes were incubated as follows:
[…] […] The supernatant was neutralized with KOH (2 M) and Mops (0.3 M) for subsequent determination of metabolites. 0.5 ml aliquots of the cell suspension were centrifuged at 13,500 g for 15 seconds. The pellet was frozen in liquid nitrogen and stored at -80° C. to subsequently measure pyruvate kinase activity.

[5] = tested on: isolated rat hepatocytes; experiment: Gross toxicity, as gauged by hepatocyte viability; type: cell-based, male Wistar rats; settings: 20 mM
Method: as §1, §2, §3
Hepatocytes (final concentration=10 mg dry cell/ml) were incubated in closed vials at 37° C. in a shaking water bath (60 strokes/min) for 30 minutes in 2.5 ml Krebs-bicarbonate buffer (NaCl: 120 mmol/L, KCl: 4.8 mmol/L, KH2 PO4 : 1.2 mmol/L, MgSO4 : 1.2 mmol/L, NaCO3 H: 24 mmol/L, Ca^2+ :2.4 mmol/L, pH 7.4) containing Bovine Serum Albumin (BSA)-oleate (2%-2 mmol/L), trilactyl glycerate or glucose octanoate (20 mM) The gas atmosphere was O2 /CO2 (19:1). After 30 minutes, 0.35 ml samples of the cell suspension were taken and quenched with perchloric acid (HCIO4, final concentration 5% (w/v)), then centrifuged at 13,500 g for 5 minutes. The supernatant was neutralized with KOH (2 M) and Mops (0.3 M) for subsequent determination of metabolites. 0.5 ml aliquots of the cell suspension were centrifuged at 13,500 g for 15 seconds. The pellet was frozen in liquid nitrogen and stored at -80° C. to subsequently measure pyruvate kinase activity.

**Q.** Which results are given for CC(O)C(=O)O (stereo not shown) [lactate]?
**A.** secretion of angiogenesis factors [1]: encouraged macrophage cultures to secrete angiogenesis factors; support of cerebral glucose metabolism and cognitive functions during hypoglycemia ([2]; Amiel 1994): able to support cerebral glucose metabolism and maintain cognitive functions during hypoglycemia; protection of brain function during hypoglycemia ([2]; Maran et al. 1994): protective of brain function during hypoglycemia; metabolism of blood lactate by skeletal muscle [3]: metabolized by skeletal muscle in significant quantities

**Q.** With CCCCCCCC(=O)OC1O[C@H](CO)[C@@H](O)[C@H](O)[C@H]1O (stereo partly drawn) [glucose octanoate, α,β-D-Glucopyranosyl octanoate] as the compound, how does the “bioavailability and metabolic conversion” value [4] read?
**A.** demonstrate the bioavailability of the substrate and its utility as a keptone precursor

**Q.** Which Glucose production ([4]; 0 Mins.) does the source give for CC(O)C(=O)OCC(COC(=O)C(C)O)OC(=O)C(C)O (single isomer, unassigned) [trilactyl glycerate] here?
**A.** 0.006

**Q.** And the “Ketone Bodies production” value ([4]; 0 Mins.)?
**A.** 0.010

**Q.** What about the Pyruvate-Lactate production ([4]; 0 Mins.) of the same compound?
**A.** 0.012

**Q.** And the “bioavailability and metabolic conversion” value [4]?
**A.** demonstrate the bioavailability of trilactyl glycerate and its interconversion to glucose

**Q.** What about the Glucose production ([4]; 15 Mins.) of the same compound?
**A.** 0.027

**Q.** And the “Ketone Bodies production” value ([4]; 15 Mins.)?
**A.** 0.12

**Q.** What about the Pyruvate-Lactate production ([4]; 15 Mins.) of the same compound?
**A.** 0.38

**Q.** What about the Glucose production ([4]; 30 Mins.) of the same compound?
**A.** 0.062

**Q.** What about the “Ketone Bodies production” value ([4]; 30 Mins.) of the same compound?
**A.** 0.15

**Q.** And the Pyruvate-Lactate production ([4]; 30 Mins.)?
**A.** 0.42

**Q.** What about the Glucose production ([4]; 45 Mins.) of the same compound?
**A.** 0.178

**Q.** What about the “Ketone Bodies production” value ([4]; 45 Mins.) of the same compound?
**A.** 0.11

**Q.** And the Pyruvate-Lactate production ([4]; 45 Mins.)?
**A.** 0.45

**Q.** And the Glucose production ([4]; 60 Mins.)?
**A.** 0.189

**Q.** And the “Ketone Bodies production” value ([4]; 60 Mins.)?
**A.** 0.13

**Q.** And the Pyruvate-Lactate production ([4]; 60 Mins.)?
**A.** 0.43

**Q.** What about the “gross toxicity, as gauged by hepatocyte viability” value [5] of the same compound?
**A.** No evidence of gross toxicity
